From patent US20160220709A1, “PHOTOACOUSTIC IMAGING CONTRAST AGENT COMPOSITION” (Agency for Science, Technology and Research, priority 2013, published 2016) come the findings set out here.

Data set [1] in a line: In vitro photoacoustic (PA) signal measurement in polyethylene tubing, PA microscopy at 410 nm. The source says:
The microscopy system consists of laser pulse generation and delivery, PA signal reception, and image reconstruction and display. Laser pulses, 4 ns wide, were generated at a frequency of 10 Hz by using an optical parametric oscillator (Surlite OPO Plus, Continuum, USA). The laser was pumped by a frequency-tripled Nd:YAG Q-switched laser (Surlite II-10, Continuum, USA). The incident wavelength was set at 410 nm. The custom-made 50-MHz ultrasonic transducer (Acoustic Sensor, Taiwan) has a −6 dB fractional bandwidth of 57.5%, focal length of 9 mm, and a 6 mm active element, offering an axial resolution of 32 μm and a lateral resolution of 61 μm.
Laser energy was delivered using a 1-mm multimodal fiber. The fiber tip was coaxially aligned with a convex lens, an axicon, a plexiglass mirror, and an ultrasonic transducer on an optical bench, forming dark-field illumination that was confocal with the focal point of the ultrasonic transducer. The incident energy density on the sample surface was well within American National Standards Institute (ANSI) safety limits. The transducer was immersed in an acrylic water tank during the imaging process, and the hole at the bottom of the tank was sealed with a piece of […] thick polyethylene film. A thin layer of ultrasonic gel was applied as a PA conductive medium, which was then attached to the thin polyethylene film to ensure reliable coupling of the PA waves with the water tank. The PA signals received by the ultrasonic transducer were pre-amplified by a low-noise amplifier (noise FIG. 1.2 dB, gain 55 dB, AU-3A-0110, USA), cascaded to an ultrasonic receiver (5073 PR, Olympus, USA) and then digitized and sampled by a computer-based 14-bit analog to digital (A/D) card (CompuScope 14220, GaGe, USA) at a 200-MHz sampling rate for data storage.
Fluctuations in the laser energy were monitored with a photodiode (DET36A/M, Thorlabs, USA). The recorded photodiode signals were measured prior to the experiment to compensate for PA signal variations caused by laser-energy instability. The achievable penetration depth of the current PA microscopy system was 3 mm with approximately 18-dB SNR, where SNR is defined as the ratio of the signal peak value to the root-mean-square value of the noise. Three scan types can be provided by this system: A-line (i.e., one-dimensional images where the axis represents the imaging depth), B-scan (i.e., two-dimensional images where one axis is the lateral scanning distance and the other is the imaging depth), and C-scan (i.e., projection images from the three-dimensional images). The amplitude of the envelope-detected PA signals was used in the subsequent functional imaging analysis.
For both in vivo and in vitro imaging, the laser was pulsed with a pulse repetition rate of 10 Hz and coupled by a lens to an optical fiber to illuminate the ROI. A window at the bottom of the water container was sealed with an optically and ultrasonically transparent, disposable polyethylene film. After a commercially available ultrasound gel was applied to the brain for acoustic coupling, the brain was placed between the water container and the custom-made stereotaxic apparatus for imaging.
All the PA images in this study were acquired at 410 nm without any need for signal averaging, and yet the contrast quality of the PA images is high. […]

The nature of data set [2]: Water solubility. The format is physicochemical.
Data set [3] has as its system oral squamous cell carcinoma (OSCC) cells. Briefly: Cell viability study (MTS / CCK8 cytotoxicity assay). The format is cell-based. Conditions: 0.01-30 μM, 24 h incubation. Here is the method:
Five thousand oral squamous cell carcinoma (OSCC) cells were seeded in a 96-well plate for 24 h before a solution of 2 in DMEM ([…]) with the indicated concentrations (0.01-30 μM) was introduced into each well. After incubation for 24 h, 10 μL of CCK8 (cell counting kit-8, Sigma-Aldrich) was added to each well. Cell absorbance was measured with a SpectraMax 384 Plus spectral analyser after 4 h, with 450 nm excitation.
Background: Tetrazolium dyes change colour on reduction, which living cells bring about.

Data set [4] in a line: In vivo PA imaging of rat cortical vasculature (superior sagittal sinus). The following applies: 200 μL of 30 μM, retro-orbital injection, 20 min after administration, 410 nm. The source says: Cortical vasculature of the rat was in vivo imaged at 32×61 μm resolution, with a designed 50-MHz dark-field confocal PA microscopy system (FIG. 4); the PA signal at λ410 was acquired. The SSS is the largest vein in the rodent brain cortex, and a selected section of it is the region-of-interest (ROI) in this study (FIG. 5B). There is strong clinical evidence that controlling cerebral venous blood flow is critically important for patients with severe traumatic brain injury as well as for patients undergoing cardiac surgery. Then, the SSS is a large central cerebral vein at cortical layer, and collects blood flow from both hemispheres before emptying into the internal jugular vein. That is, accurate measurements of blood flow changes in the SSS are thus very important.
Six male Wistar rats (NUS-CARE, Singapore), weighing 250-300 grams, were used. Animal experiments were conducted in accordance with guidelines from Institutional Animal Care and Use Committee (IACUC) at the National University of Singapore. The rats were fasted for 24 h prior to the imaging experiments, but were given water ad libitum. They were anesthetized with isoflurane (2 to 3% in 100% O2), mounted in a dorsal position over a custom-made acrylic stereotaxic holder, and the skin and muscle on the skull were removed to expose the bregma landmark. […]

As to “Os3(CO)10(μ-H)μ-S(CH2)2COO^−Na^+ [compound 2]”, the “concentration down to which PA signal of aqueous solution is adequate” value in data set [1] (aqueous solution, B-scan) came out at 2.5 µM. Further, the water solubility result in data set [2] is “water-soluble”. Besides, the “effect on viability of cells (cytotoxicity)” value in data set [3] is on record as “little effect on the viability of cells”. In addition, the “clarity of brain vasculature in PA B-scan image compared to intrinsic optical contrast” value in data set [4] is given as “greater clarity”.
On to `[C-]#[O+].[C-]#[O+].[C-]#[O+].[C-]#[O+].[C-]#[O+].[C-]#[O+].[C-]#[O+].[C-]#[O+].[C-]#[O+].[C-]#[O+].[C-]#[O+].[C-]#[O+].[Os].[Os].[Os]` [1c, Os3(CO)12], for which, in data set [1], the “PA signal relative to that for single-walled carbon nanotubes (SWNT)” value is 2.4 times higher. Further, in data set [1] (water/ethanol (60:40, v/v)), the “PA signal relative to that for 1a” value was “about 1.5 times higher”; the “PA signal relative to that for 1b” value is around 1.2 times higher; the “PA signal, rank among the three carbonyl clusters” value is “highest PA signal”. The water solubility result in data set [2] was “low water solubility”.
